# Reference: patent US20110097274A1, “Carbon-11 and fluorine-18 labeled radioligands for positron emission tomography (PET) imaging for the brain serotonin transporters” (priority 2002, published 2011)
# Where “and” joins values, the source holds several entries; their conditions need not be identical. Equal values may be shown once.
# Legend:
# [1] = Plasma free fraction (f1) and filter retention by ultrafiltration; format: in vitro ADME, baboon; conditions: mean ± SD of four experiments
# Protocol: Plasma and ultrafiltrate activities were counted, and f1 was calculated as the ratio of ultrafiltrate activity to total plasma activity. Triplicate aliquots of the radioligand in pH 7.4 Tris buffer were also processed to determine the filter retention of free tracer.
# SERT = experiment: Baboon PET imaging: brain uptake, kinetic analysis and SERT parameters; format: in vivo
# Protocol: PET imaging protocol: PET experiments (n=20) were performed at Columbia University. Two adult male baboons (baboon A and B) were studied twice with each of the 5 radioligands (4 experiments per radioligand). All experiments took place within a 9-month period. Baboons A and B were 31 kg and 21 kg in weight at the beginning of the experimental period and 28 and 22 kg at the end, respectively. Test and retest experiments with the same radioligand were obtained on different days, with an average interval of 117±53 days.
# Experiments were performed according to protocols approved by the Columbia-Presbyterian Medical Center Institutional Animal Care and Use Committee. Fasted animals were immobilized with ketamine (10 mg/kg i.m.), and anesthetized with 1.8% isoflurane via an endotracheal tube. Vital signs were monitored every 10 minutes and the temperature was kept constant at 37° C. with heated water blankets. An i.v. perfusion line was used for hydration and injection of radioligands and nonradioactive drugs. A catheter was inserted in a femoral artery for arterial blood sampling. Head was positioned at the center of the field of view as defined by imbedded laser lines. PET imaging was performed with the ECAT EXACT HR+PET scanner (Siemens/CTI, Knoxville, Tenn.). In 3D mode, this camera provides an in-plane resolution of 4.3 mm, 4.5 mm, 5.4 mm and 8.0 mm full width at half maximum (FWHM) at a distance of 0, 1, 10 and 20 cm from the center of the field of view, respectively (Brix et al., 1997). A 15 minute transmission scan was obtained prior to radioligand injection for attenuation correction. Activity was injected i.v. over 30 seconds. […] Emission data was collected in the 3D mode for 91 minutes as 21 successive frames of increasing duration (6*10 seconds, 2*1 minutes, 4*2 minutes, 2*5 minutes, and 7*10 minutes).
# Image analysis: A Magnetic Resonance Image (MRI) of each baboon's brain was obtained for the purpose of identifying the regions of interest (ROI) (T1-weighted axial MRI sequence, acquired parallel to the anterior-posterior commissure, TR 34 msec, TE 5 msec, flip angle of 45 degrees, slice thickness is 1.5 mm, zero gap, matrix 1.5 mm×1 mm×1 mm voxels). The following regions were drawn on the MR images: cerebellum, midbrain, thalamus, striatum, hippocampus, temporal cortex, cingulate cortex and occipital cortex.
# PET emission data were attenuation-corrected using the transmission scan, and frames were reconstructed using a Shepp filter (cutoff 0.5 cycles/projection rays). Reconstructed image files were then processed using the image analysis software MEDx (Sensor Systems, Inc., Sterling, Va.). An image was created by summing all the frames, and this summed image was used to define the registration parameters with the MR image, using between-modality automated image registration (AIR) algorithm (Woods et al., 1993). Registration parameters were then applied to the individual frames for registration to the MR data set. Regional boundaries were transferred to the individual registered PET frames, and time-activity curves were measured and decay-corrected. Right and left regions were averaged. For a given animal, the same regions were used for all radioligands.
# Brain uptake: Total brain uptake was expressed as percentage of the injected dose per gram of tissue (% ID g^−1) in a region encompassing the entire brain. Regional peak time was defined as the mid-time of the frame associated with the highest activity value. To estimate the degree of wash-out from the brain captured during the scan interval (91 minutes), the decrease in activity from the peak frame to the last frame was calculated and expressed in percentage of the peak activity.
# Kinetic analysis: Regional total distribution volumes (VT, mL g^−1) were derived with kinetic analysis of the regional time-activity curves, using the arterial plasma concentrations as input function. […]
# [2] = BP = VT ROI − VT CER, baboons, mean ± SD of four experiments
# [3] = Mean ± SD of four experiments in two baboons
# [4] = baboon A, experiments of FIGS. 5-9 (FIG. 10)
# [5] = baboons, mean ± SD of four experiments
# [6] = last scan 90 minutes, baboons, mean ± SD of four experiments
# [7] = one-tissue compartment model, baboons, mean ± SD of four experiments
compound,measurement,setting,value
"CN([11CH3])Cc1ccccc1Sc1ccc(CF)cc1N [[^11C]AFM, [^11C]2-[2-(Dimethylaminomethyl)phenylthio]-5-fluoromethylphenylamine]",Filter retention,"[1]; activity remaining on filter, radioligand dissolved in saline",19.3 ± 4.1%
same,f1 (plasma free fraction),"[1]; baboon plasma, ultrafiltration",9.6 ± 0.5%
same,Binding potential Cingulate Cortex,SERT; [2],8.5 ± 1.0 mL/g
same,Binding potential Hippocampus,SERT; [2],20.9 ± 2.5 mL/g
same,Binding potential Midbrain,SERT; [2],65.8 ± 11.7 mL/g
same,Binding potential Occipital Cortex,SERT; [2],7.3 ± 1.3 mL/g
same,Binding potential Striatum,SERT; [2],31.3 ± 6.5 mL/g
same,Binding potential Temporal Cortex,SERT; [2],11.8 ± 0.9 mL/g
same,Binding potential Thalamus,SERT; [2],71.3 ± 16.5 mL/g
same,Equilibrium specific to non-specific partition coefficient (V3″) Cingulate Cortex,"SERT; Baboon A, single experiment",0.30 and 0.26
same,Equilibrium specific to non-specific partition coefficient (V3″) Hippocampus,"SERT; Baboon A, single experiment",0.70 and 0.75
same,Equilibrium specific to non-specific partition coefficient (V3″) Midbrain,"SERT; Baboon A, single experiment",2.13 and 2.18
same,Equilibrium specific to non-specific partition coefficient (V3″) Occipital Cortex,"SERT; Baboon A, single experiment",0.29 and 0.30
same,Equilibrium specific to non-specific partition coefficient (V3″) Striatum,"SERT; Baboon A, single experiment",0.97 and 0.92
same,Equilibrium specific to non-specific partition coefficient (V3″) Temporal Cortex,"SERT; Baboon A, single experiment",0.38 and 0.46
same,Equilibrium specific to non-specific partition coefficient (V3″) Thalamus,"SERT; Baboon A, single experiment",2.10
same,Equilibrium specific to non-specific partition coefficient (V3″) Cingulate Cortex,"SERT; Baboon B, single experiment",0.30 and 0.25
same,Equilibrium specific to non-specific partition coefficient (V3″) Hippocampus,"SERT; Baboon B, single experiment",0.61 and 0.69
same,Equilibrium specific to non-specific partition coefficient (V3″) Midbrain,"SERT; Baboon B, single experiment",1.94 and 2.33
same,Equilibrium specific to non-specific partition coefficient (V3″) Occipital Cortex,"SERT; Baboon B, single experiment",0.18 and 0.20
same,Equilibrium specific to non-specific partition coefficient (V3″) Striatum,"SERT; Baboon B, single experiment",1.06 and 1.11
same,Equilibrium specific to non-specific partition coefficient (V3″) Temporal Cortex,"SERT; Baboon B, single experiment",0.35 and 0.37
same,Equilibrium specific to non-specific partition coefficient (V3″) Thalamus,"SERT; Baboon B, single experiment",2.46 and 2.58
same,Equilibrium specific to non-specific partition coefficient (V3″) Cingulate Cortex,SERT; [3],0.28 ± 0.02
same,Equilibrium specific to non-specific partition coefficient (V3″) Hippocampus,SERT; [3],0.69 ± 0.06
same,Equilibrium specific to non-specific partition coefficient (V3″) Midbrain,SERT; [3],2.14 ± 0.16
same,Equilibrium specific to non-specific partition coefficient (V3″) Occipital Cortex,SERT; [3],0.24 ± 0.06
same,Equilibrium specific to non-specific partition coefficient (V3″) Striatum,SERT; [3],1.01 ± 0.08
same,Equilibrium specific to non-specific partition coefficient (V3″) Temporal Cortex,SERT; [3],0.39 ± 0.05
same,Equilibrium specific to non-specific partition coefficient (V3″) Thalamus,SERT; [3],2.31 ± 0.25
same,Thalamus to cerebellum ratio equal to true equilibrium ratio (V3″+1),SERT; [4],3.10
same,Time at which measured thalamus to cerebellum ratio equals the true equilibrium ratio (estimate of peak specific binding),SERT; [4],64 min
same,"K1, average of all regions and all animals",SERT; baboons,1.44 ± 0.40 mL/g/min
same,"VT, average of all regions and all animals",SERT; baboons,57.5 ± 27.5 mL/g
same,"k2, average of all regions and all animals",SERT; baboons,0.030 ± 0.015 min⁻¹
same,f2 (free fraction in the nonspecific distribution volume),"SERT; baboons, calculated from f1 and cerebellar VT",0.32±0.04%
same,V3″ expressed in percentage of [^11C]McN 5652 V3″,"SERT; baboons, combining all regions",193±35%
same,Mean regional peak uptake time,"SERT; baboons, mean of all regions",38 ± 19 min
same,Mean regional wash-out (% decrease between peak time and last scan),"SERT; baboons, mean of all regions",32±26%
same,Cingulate Cortex to cerebellum activity ratio at 90 minutes,SERT; [5],1.30 ± 0.09
same,Hippocampus to cerebellum activity ratio at 90 minutes,SERT; [5],1.84 ± 0.40
same,Midbrain to cerebellum activity ratio at 90 minutes,SERT; [5],3.48 ± 1.09
same,Occipital Cortex to cerebellum activity ratio at 90 minutes,SERT; [5],1.26 ± 0.18
same,Regional uptake peak time Cerebellum,SERT; [5],23 ± 11 min
same,Regional uptake peak time Cingulate Cortex,SERT; [5],28 ± 11 min
same,Regional uptake peak time Hippocampus,SERT; [5],39 ± 16 min
same,Regional uptake peak time Midbrain,SERT; [5],56 ± 24 min
same,Regional uptake peak time Occipital Cortex,SERT; [5],30 ± 14 min
same,Regional uptake peak time Striatum,SERT; [5],44 ± 21 min
same,Regional uptake peak time Temporal Cortex,SERT; [5],34 ± 14 min
same,Regional uptake peak time Thalamus,SERT; [5],54 ± 22 min
same,Striatum to cerebellum activity ratio at 90 minutes,SERT; [5],2.10 ± 0.24
same,Temporal Cortex to cerebellum activity ratio at 90 minutes,SERT; [5],1.44 ± 0.20
same,Thalamus to cerebellum activity ratio at 90 minutes,SERT; [5],3.51 ± 0.72
same,Total brain uptake at 45 min,"SERT; baboons, region encompassing the entire brain",0.016±0.002 % ID g^−1
same,In vivo affinity relative to [^11C]DASB (times higher),"SERT; from Bmax/KD ratios, assuming same number of binding sites",3.3 times
same,"Regional activity wash-out: % decrease from peak to last scan, Cerebellum",SERT; [6],48 ± 28%
same,"Regional activity wash-out: % decrease from peak to last scan, Cingulate Cortex",SERT; [6],43 ± 27%
same,"Regional activity wash-out: % decrease from peak to last scan, Hippocampus",SERT; [6],26 ± 27%
same,"Regional activity wash-out: % decrease from peak to last scan, Midbrain",SERT; [6],16 ± 22%
same,"Regional activity wash-out: % decrease from peak to last scan, Occipital Cortex",SERT; [6],42 ± 27%
same,"Regional activity wash-out: % decrease from peak to last scan, Striatum",SERT; [6],29 ± 31%
same,"Regional activity wash-out: % decrease from peak to last scan, Temporal Cortex",SERT; [6],36 ± 29%
same,"Regional activity wash-out: % decrease from peak to last scan, Thalamus",SERT; [6],18 ± 25%
same,K1 Cerebellum,SERT; [7],1.52 ± 0.49 mL/g/min
same,K1 Cingulate Cortex,SERT; [7],1.48 ± 0.40 mL/g/min
same,K1 Hippocampus,SERT; [7],1.15 ± 0.35 mL/g/min
same,K1 Midbrain,SERT; [7],1.57 ± 0.41 mL/g/min
same,K1 Occipital Cortex,SERT; [7],1.35 ± 0.37 mL/g/min
same,K1 Striatum,SERT; [7],1.48 ± 0.48 mL/g/min
same,K1 Temporal Cortex,SERT; [7],1.25 ± 0.34 mL/g/min
same,K1 Thalamus,SERT; [7],1.68 ± 0.42 mL/g/min
same,K2 Cerebellum,SERT; [7],0.051 ± 0.021 min⁻¹
same,K2 Cingulate Cortex,SERT; [7],0.039 ± 0.012 min⁻¹
same,K2 Hippocampus,SERT; [7],0.023 ± 0.008 min⁻¹
same,K2 Midbrain,SERT; [7],0.017 ± 0.006 min⁻¹
same,K2 Occipital Cortex,SERT; [7],0.036 ± 0.011 min⁻¹
same,K2 Striatum,SERT; [7],0.025 ± 0.010 min⁻¹
same,K2 Temporal Cortex,SERT; [7],0.030 ± 0.010 min⁻¹
same,K2 Thalamus,SERT; [7],0.017 ± 0.006 min⁻¹
same,"VT Cerebellum (VT CER, nonspecific distribution volume)",SERT; [7],30.6 ± 3.9 mL/g
same,VT Cingulate Cortex,SERT; [7],39.0 ± 4.7 mL/g
same,VT Hippocampus,SERT; [7],51.5 ± 6.1 mL/g
same,VT Midbrain,SERT; [7],96.3 ± 15.3 mL/g
same,VT Occipital Cortex,SERT; [7],37.9 ± 3.6 mL/g
same,VT Striatum,SERT; [7],61.9 ± 10.4 mL/g
same,VT Temporal Cortex,SERT; [7],42.4 ± 4.5 mL/g
same,VT Thalamus,SERT; [7],101.9 ± 20.4 mL/g
